According to article PMC8583417, “Evaluation of the Antimicrobial Efficacy of N-Acetyl-L-Cysteine, Rhamnolipids, and Usnic Acid—Novel Approaches to Fight Food-Borne Pathogens” (International Journal of Molecular Sciences, 2021):

How the values were obtained:
S. aureus 1241 = assay: MIC for biofilm formation (crystal violet staining); format: cell-based, Staphylococcus aureus; conditions: ≥80% prevention, 24 h
Experimental: (§1) Ten concentrations of NAC, RLs, and UA were tested to determine the minimum inhibitory concentration for planktonic growth, and subsequently, the six highest concentrations were applied on preformed biofilms to evaluate the biofilm eradication ability of the compounds. MIC was defined as the lowest substance concentration able to inhibit at least 80% of microbial growth (MICPC80 for planktonic cells, MICBC80 for further growth of biofilm cells), inhibit 80% of metabolic activity (MICBM80 for biofilm metabolic activity, MICMPB80 for metabolic activity of preformed biofilm), prevent biofilm formation by at least 80% (MICBF80 for biofilm formation), or reduce a preformed biofilm by at least 80% (MICBR80 for biofilm reduction). The results of MICs are summarized in Table 1 (planktonic cells) and Table 2 (biofilm-associated cells).
(§2) The determination of MICs was performed according to Chlumsky et al.. Briefly, 96-well flat-bottomed microtiter plates were inoculated with 75 µL (for biofilm formation) or 100 µL (for preformed biofilm) of bacterial suspension (A625nm 0.08 to 0.1) in technical triplicates and were then carefully mixed with the dilution series of the test substances (24 h cultivation at 25 °C for S. Infantis, 37 °C for other strains) or were directly cultivated to preform biofilms (18 h). For a positive control of bacterial growth, the inoculum was mixed with a pure sterile medium. […] To evaluate planktonic cells growth (MICPC80) and further growth of biofilm cells (MICBC80), the optical density of the content of the microtiter plates was measured spectrophotometrically at 625 nm before and after 24 h (for biofilm formation) of cultivation or before and after additional 20 h incubation with the tested compound (for preformed biofilm). […] To evaluate the inhibition of biofilm formation (MICBF80) and reduction in preformed biofilms (MICBR80), biomass was quantified using crystal violet staining, and its metabolic activity (MICBM80 and MICMPB80) was estimated by using the MTT (thiazyl tetrazolium bromide, Sigma-Aldrich, USA) reduction assay, both measured spectrophotometrically at 595 nm.
(§3) All inhibitions were calculated using the formula of Chlumsky et al. below (Equation (1)):(1) A625(595)nm inhibition (%)=A625(595)nm (control) – A625(595)nm(natural substance)/A625(595)nm (control)× 100 where A625(595)nm (control) is the absorbance of bacterial suspension/biofilm itself, and A625(595)nm(natural substance) is the absorbance of the bacterial suspension/biofilm with the added natural substance (NAC, RLs, and UA).
(§4) When the minimum inhibitory concentration could not be determined, the MIC was established as >the highest tested concentration for NAC, RLs, and UA.

S. aureus 816 [1] = assay: as above; format: cell-based, Staphylococcus aureus; conditions: ≥80% prevention, 24 h
Experimental: as §1, §2, §3, §4

E. coli 683/17 = assay: MIC for reduction of preformed biofilm (crystal violet staining); format: cell-based, Escherichia coli; conditions: for maximal achieved inhibition (MICBR80 not reached), biofilm reduction: preformed biofilm, within tested concentrations; for MICBR80: ≥80% reduction of preformed biofilm (18 h), 20 h with substance
Experimental: as §1
(§5) The determination of MICs was performed according to Chlumsky et al.. Briefly, 96-well flat-bottomed microtiter plates were inoculated with 75 µL (for biofilm formation) or 100 µL (for preformed biofilm) of bacterial suspension (A625nm 0.08 to 0.1) in technical triplicates and were then carefully mixed with the dilution series of the test substances (24 h cultivation at 25 °C for S. Infantis, 37 °C for other strains) or were directly cultivated to preform biofilms (18 h). For a positive control of bacterial growth, the inoculum was mixed with a pure sterile medium. Furthermore, the sterile medium was included in the plate as a marker of potential microbial contamination. To evaluate planktonic cells growth (MICPC80) and further growth of biofilm cells (MICBC80), the optical density of the content of the microtiter plates was measured spectrophotometrically at 625 nm before and after 24 h (for biofilm formation) of cultivation or before and after additional 20 h incubation with the tested compound (for preformed biofilm). The difference of A625nm was considered as a measure of the ability of cells to grow in the presence of the tested substances. To evaluate the inhibition of biofilm formation (MICBF80) and reduction in preformed biofilms (MICBR80), biomass was quantified using crystal violet staining, and its metabolic activity (MICBM80 and MICMPB80) was estimated by using the MTT (thiazyl tetrazolium bromide, Sigma-Aldrich, USA) reduction assay, both measured spectrophotometrically at 595 nm.
as §3, §4

E. coli 693/17 = assay: as above; format: cell-based, Escherichia coli; conditions: for MICBR80: ≥80% reduction of preformed biofilm (18 h), 20 h with substance
Experimental: as §1, §5, §3, §4

S. aureus 816 [2] = assay: CLSM analysis, biofilm prevention; format: cell-based, Staphylococcus aureus; conditions: for Thickness (µm) MICBM80 / Thickness (µm) subCBM80: 24 h exposure; for Thickness (µm) MICBM80: substance at its MICBM80, mean ± SD; for Thickness (µm) subCBM80: substance at subinhibitory concentration, mean ± SD
Experimental: Biofilm prevention and removal analyses were performed using previously determined minimum inhibitory and subinhibitory concentrations for metabolic activity (MICBM80, subCBM80; MICMPB80, subCMPB80) of NAC, RLs, and UA specific for each tested strain. Selected concentrations were used to evaluate the inhibition of biofilm formation (biofilm prevention) and the reduction in previously formed biofilms (biofilm removal) for the same set of microorganisms, with the exception of S. Infantis, which was excluded from the analysis due to its inability to form biofilm in the selected microtiter plate. Biofilm prevention and removal were observed using CLSM with specific staining to distinguish between live and membrane-compromised cells. Images were analyzed to evaluate (i). the total volume of the biomass, (ii). ratios of live and membrane-compromised cells, and (iii). to calculate biofilm volume reduction for individual organisms after the respective treatment types. The total biofilm volume was normalized by the area of the well and expressed as an average biofilm thickness. Complete data are provided in Supplementary Materials (Tables S1–S8).
For both inhibition and reduction of biofilms, overnight cultures from BHI were diluted in TSB + 1% Glc to reach an absorbance of 0.08 to 0.1 at 625 nm. The inoculum (150 µL) was transferred into wells of the 96-well flat-bottomed Ibidiμ-Plate (Ibidi, Gräfelfing, Germany) and mixed with 150 µL of each of the three tested substances in technical quadruplicates, followed by incubation at 37 °C for 24 h. Simultaneously, the prepared bacterial suspensions were inoculated to an additional microtiter plate (200 µL) and allowed to form biofilm overnight (18 h at 37 °C). After the incubation, the content of the well was drained off, and 200 µL of each of the three tested substances was added to the plate, which was then incubated for an additional 20 h. The used concentrations of the substances represented the subinhibitory and minimum inhibitory concentrations for metabolic activity (subCBM80, MICBM80; subCMPB80, MICMPB80). Both setups contained a positive control of the bacterial growth (inoculum mixed with sterile TSB + 1% Glc medium) and a control monitoring microbial contamination (sterile medium). Non-treated wells were used as a positive control for comparison between non-treated and treated biofilm mass.
Prior to the imaging, the wells were stained with the LIVE/DEAD® BacLight™ Bacterial Viability Kit (Thermo Fisher Scientific, MA, USA) following the manufacturer’s guidelines and Drago et al.. Briefly, equal volumes of SYTO® 9 and propidium iodide were combined with the sterile distilled water to reach a final concentration of […]. The biofilm mass was stained using 300 µL of the staining solution per well followed by incubation at 37 °C in the dark for 15 min. Stained wells were washed once with sterile distilled water, which was then added to each well (300 µL). Images were acquired with an inverted Leica SP5 CLSM using a 1.25× dry objective (WD 3.7 mm, Z-resolution 27 µm, up to 24 Z-stacks per well) to visualize an entire well. Samples were kept at the cultivation conditions (37 °C, 5% CO2, 90% humidity) with an OkoLabs stage top environmental chamber (Oko Labs, PA, USA). Fluorophore excitation lasers and emission bandwidths were as follows: SYTO® 9 (ex/em 485/498 nm) 488 nm excitation, 495 to 550 nm emission collection; propidium iodide (ex/em 535/617 nm) 561 nm excitation, 595 to 650 nm emission collection. The laser beam scanned the visual field at a frequency of 600 Hz. The wells were captured in snapshots of 1024 × 1024 pixels representing the area of 153.76 mm^2.
All collected images were statistically evaluated to quantify biovolume utilizing the surface estimation procedure described in Parker et al.. […]

## CC(=O)c1c(O)c(C)c(O)c2c1OC1=CC(=O)C(C(C)=O)C(=O)C12C (single isomer, unassigned; (+)) [UA, (+)-usnic acid]
S. aureus 1241
  MICBF80: 0.24 µg/mL
S. aureus 816 [1]
  MICBF80: 0.24 µg/mL
E. coli 683/17
  maximal achieved inhibition (MICBR80 not reached), biofilm reduction: 0%
  MICBR80: > 31.3 µg/mL
E. coli 693/17; preformed biofilm, within tested concentrations
  maximal achieved inhibition (MICBR80 not reached), biofilm reduction: 0%
E. coli 693/17
  MICBR80: > 31.3 µg/mL
S. aureus 816 [2]; 24 h, MIC and subinhibitory concentration
  proportion of membrane-compromised cells: up to 15%
S. aureus 816 [2]
  Thickness (µm) MICBM80: 237 ± 41.9 µm
  Thickness (µm) subCBM80: 270 ± 21 µm

## CC(=O)N[C@@H](CS)C(=O)O [NAC, N-Acetyl-L-cysteine]
S. aureus 1241
  MICBF80: 12,500 µg/mL
S. aureus 816 [1]
  MICBF80: 3130 µg/mL
E. coli 683/17
  maximal achieved inhibition (MICBR80 not reached), biofilm reduction: 68%
  MICBR80: > 100,000 µg/mL
E. coli 693/17
  MICBR80: 100,000 µg/mL
S. aureus 816 [2]
  Thickness (µm) MICBM80: 104 ± 67.8 µm
  Thickness (µm) subCBM80: 181 ± 57.7 µm
